Like-named read-outs stand apart in the source and are kept apart here.
Key:
[1] = system: human Na,K-ATPase α2β3FXYD1; test: biochemical; format: biochemical
IOP in rabbits [2] = format: in vivo, New Zealand white rabbits; conditions: one drop topically prior to 4AP, IOP over 5 hours
[3] = biological target: human Na,K-ATPase α2β1FXYD1 (Homo sapiens, UniProt P50993); test: biochemical; format: biochemical
IOP in rabbits [4] = test: Lowering of basal IOP in rabbits, topical; format: in vivo, New Zealand white rabbits
[5] = biological target: human Na,K-ATPase α2β3FXYD1 (Homo sapiens (Human), UniProt P50993); test: biochemical; format: biochemical
[6] = biological target: human Na,K-ATPase α2β2FXYD1 (Homo sapiens (Human), UniProt P50993); test: biochemical
[7] = biological target: human Na,K-ATPase α1β1FXYD1 (Homo sapiens (Human), UniProt P05023); test: biochemical

## CC1CN(CC2CC2)CCC(O[C@@H]2C(C)O[C@@H](O[C@@H]3C(C)O[C@@H](O[C@H]4CC[C@@]5(C)C(CCC6C5CC(O)[C@]5(C)[C@@H](C7=CC(=O)OC7)CC[C@]65O)C4)C[C@@H]3O)C[C@@H]2O)O1 (stereo in doubt) [DMcP, 4-((3S,5R,8R,9S,10S,12R,13S,14S,17R)-3-(((2R,4S,5S,6R)-5-(((2S,4S,5S,6R)-5-((4-(cyclopropylmethyl)-2-methyl-1,4-oxazepan-7-yl)oxy)-4-hydroxy-6-methyltetrahydro-2H-pyran-2-yl)oxy)-4-hydroxy-6-methyltetrahydro-2H-pyran-2-yl)oxy)-12,14-dihydroxy-10,13-dimethylhexadecahydro-1H-cyclopenta[a]phenanthren-17-yl)furan-2(5H)-one]
[1]
  Selectivity Ki ratio α1β1/α2β3: 22
IOP in rabbits [2]
  concentration that prevents the rise of the 4AP-induced IOP: 0.01 mM
[3]
  Selectivity Ki ratio α1β1/α2β1: 5.2

## CC1CN(C2CCC2)CCC(O[C@@H]2C(C)O[C@@H](O[C@@H]3C(C)O[C@@H](O[C@H]4CC[C@@]5(C)C(CCC6C5CC(O)[C@]5(C)[C@@H](C7=CC(=O)OC7)CC[C@]65O)C4)C[C@@H]3O)C[C@@H]2O)O1 (stereo in doubt) [DcB, 4-((3S,5R,8R,9S,10S,12R,13S,14S,17R)-3-(((2R,4S,5S,6R)-5-(((2S,4S,5S,6R)-5-((4-cyclobutyl-2-methyl-1,4-oxazepan-7-yl)oxy)-4-hydroxy-6-methyltetrahydro-2H-pyran-2-yl)oxy)-4-hydroxy-6-methyltetrahydro-2H-pyran-2-yl)oxy)-12,14-dihydroxy-10,13-dimethylhexadecahydro-1H-cyclopenta[a]phenanthren-17-yl)furan-2(5H)-one]
[1]
  Selectivity Ki ratio α1β1/α2β3: 33
IOP in rabbits [2]
  concentration that prevents the rise of the 4AP-induced IOP: 0.01 mM
IOP in rabbits [4]; 2 mM
  reduction of basal IOP at higher concentration: reduces the IOP similarly to 1 mM DcB

## CC1CN(CC2CC2)CCC(O[C@@H]2C(C)O[C@@H](OC3C(C)OC(O[C@H]4CC[C@@]5(C)C(CCC6C5CC[C@]5(C)[C@@H](C7=CC(=O)OC7)CC[C@]65O)C4)C[C@@H]3O)C[C@@H]2O)O1 (stereo in doubt) [DtxMcP, 4-((3S,5R,8R,9S,10S,13R,14S,17R)-3-(((2S,4S,5R,6R)-5-(((2S,4S,5S,6R)-5-((4-(cyclopropylmethyl)-2-methyl-1,4-oxazepan-7-yl)oxy)-4-hydroxy-6-methyltetrahydro-2H-pyran-2-yl)oxy)-4-hydroxy-6-methyltetrahydro-2H-pyran-2-yl)oxy)-14-hydroxy-10,13-dimethylhexadecahydro-1H-cyclopenta[a]phenanthren-17-yl)furan-2(5H)-one]
[5]
  Ki: 3.7 ± 0.5 nM
  Ki reduced compared to digoxin: about 10 fold
[3]
  Ki: 4.2 ± 0.4 nM
[6]
  Ki: 5.4 ± 1.2 nM
[7]
  Ki: 25 ± 4 nM

## CC1CN(C2CCC2)CCC(O[C@@H]2C(C)O[C@@H](OC3C(C)OC(O[C@H]4CC[C@@]5(C)C(CCC6C5CC[C@]5(C)[C@@H](C7=CC(=O)OC7)CC[C@]65O)C4)C[C@@H]3O)C[C@@H]2O)O1 (stereo in doubt) [DtxcB, 4-((3S,5R,8R,9S,10S,13R,14S,17R)-3-(((2S,4S,5R,6R)-5-(((2S,4S,5S,6R)-5-((4-cyclobutyl-2-methyl-1,4-oxazepan-7-yl)oxy)-4-hydroxy-6-methyltetrahydro-2H-pyran-2-yl)oxy)-4-hydroxy-6-methyltetrahydro-2H-pyran-2-yl)oxy)-14-hydroxy-10,13-dimethylhexadecahydro-1H-cyclopenta[a]phenanthren-17-yl)furan-2(5H)-one]
[5]
  Ki: 4.3 ± 0.6 nM
  Ki reduced compared to digoxin: about 10 fold
[3]
  Ki: 5.4 ± 0.5 nM
[6]
  Ki: 5.3 ± 0.8 nM
[7]
  Ki: 30.7 ± 7.2 nM

## CC1CN(C)CCC(O[C@@H]2[C@H](C)O[C@@H](O[C@@H]3[C@H](C)O[C@@H](O[C@H]4CC[C@@]5(C)C(CCC6C5C[C@H](O)[C@]5(C)[C@@H](C7=CC(=O)OC7)CC[C@]65O)C4)C[C@@H]3O)C[C@@H]2O)O1 (stereo partly shown) [DMe]
[1]
  Selectivity Ki ratio α1β1/α2β3: 9.5
[3]
  Selectivity Ki ratio α1β1/α2β1: 6.7
IOP in rabbits [4]; one drop of 1 mM solution, other eye PBS
  effect on lowering the basal IOP: coincides with other observations

## CC(=O)O[C@H]1C[C@H](O[C@H]2[C@@H](OC(C)=O)C[C@H](O[C@H]3CC[C@@]4(C)[C@H](CC[C@@H]5[C@@H]4C[C@@H](OC(C)=O)[C@]4(C)[C@@H](C6=CC(=O)OC6)CC[C@]54O)C3)O[C@@H]2C)O[C@H](C)[C@H]1OC1CCN(C2CCC2)CC(C)O1 (stereo partly drawn) [TrisAcDcB, (2R,3R,4S,6R)-6-(((3S,5R,8R,9S,10S,12R,13S,14S,17R)-12-acetoxy-14-hydroxy-10,13-dimethyl-17-(5-oxo-2,5-dihydrofuran-3-yl)hexadecahydro-1H-cyclopenta[a]phenanthren-3-yl)oxy)-3-(((2S,4S,5R,6R)-4-acetoxy-5-((4-cyclobutyl-2-methyl-1,4-oxazepan-7-yl)oxy)-6-methyltetrahydro-2H-pyran-2-yl)oxy)-2-methyltetrahydro-2H-pyran-4-yl acetate]
IOP in rabbits [4]; 0.05-0.2 mM
  time to minimum IOP: 5 to 6 h
IOP in rabbits [4]; dropped from 15-16 mmHg, 0.05-0.2 mM
  minimum IOP: 12 mmHg
IOP in rabbits [4]; one 30 μl drop, 0.05, 0.1, 0.2 mM
  effect on basal IOP in the first hours (lag): no effect was observed at the first four hours
IOP in rabbits [4]; prodrug, 0.05-0.2 mM
  time of return of IOP to the control level: 12 h
IOP in rabbits [4]; rabbit, in vivo
  maximal effect on IOP compared with parent DcB: essentially equal to that produced by the parent DcB

## [O]=[V]([OH])([OH])[OH] [vanadate, reference compound]
[5]; read-out: apparent vanadate affinity (Ki vanadate) α2β3
  Ki: 19000 nM

From patent US11077128B2, “Selective inhibitors of Alpha2-containing isoforms of Na,K-ATPase and use thereof for reduction of intraocular pressure” (Yeda Research and Development Co. Ltd., priority 2015, dated 2021)
